According to patent US5198445A, “Composition and use of substituted 3-thio-2-propynenitriles as industrial antimicrobials” (The Dow Chemical Company, priority 1992, dated 1993):
≈ marks a conversion by molar mass, not a printed value. Like-named read-outs stand apart in the source and are kept apart here.

Experiments:
[1] = system: mixture of the bacterial organisms listed in Table II; assay: Multiple Challenge Test in hand lotion formulation; type: cell-based, bacteria listed in Table II; conditions: 10 challenges
Experimental: (§1) Additionally, the ability of the compounds of Table I to serve as preservatives in a variety of formulated industrial, household, and commercial products is tested using a Multiple Challenge Test Protocol. In this test, the formulations include a styrene-butadiene latex, a tape joint, a hand lotion, and a shampoo. The styrene-butadiene latex test formulation used is Latex DL 238A, available from The Dow Chemical Company. The compositions of the tape joint, hand lotion and shampoo test formulations can be found in Tables V-VII.
(§2) The formulations are separated into 50 g aliquots and placed in sterile bottles. An appropriate amount of a fresh one percent stock solution of the test compound in acetone-water is added to achieve the desired final concentrations. A small portion of each of the test formulations is streaked onto Tryptic Soy Agar (TSA) petri plates using sterile cotton swabs to ensure that the formulations are sterile. If the formulation is sterile, then it is inoculated with 0.1 ml of a mixture of equal aliquots of the 24 hour cultures of each of the bacterial organisms listed in Table II. The test formulations are then incubated at 30° C. After 24 hours, each sample is streaked onto a TSA petri plate using a sterile swab. All plates are then incubated at 30° C. for 48 hours and then rated for microbial growth using the rating system listed in Table VIII. Samples with a rating of 3 or less are reinoculated as described in the procedure for the first inoculation. Samples with a rating of 4 or greater are not reinoculated but after another 24 hours are restreaked on TSA agar.
(§3) The normal interpretation of the results is that a concentration of the antimicrobial being tested is considered to be effective if no ratings greater than a 3 are observed throughout the 10 challenges. The Minimum Effective Concentration (MEC), which is used to compare the activity of the antimicrobial additives in the end-use formulations, is the minimum level that is effective under the conditions of the Multiple Challenge Test.

[2] = system: Escherichia coli (Ec); assay: MIC in nutrient agar, Escherichia coli; type: cell-based, Escherichia coli ATCC 11229
Experimental: (§4) The minimum inhibitory concentration (MIC) for the compounds listed in Table I is determined for 9 bacteria, using nutrient agar, and 7 yeast and fungi, using malt yeast agar. A one percent solution of the test compound is prepared in a mixture of acetone and water. Nutrient agar is prepared at pH 6.8, representing a neutral medium, and at pH 8.2, representing an alkaline medium. The nutrient agars are prepared by adding 23 g of nutrient agar to one-liter of deionized water. In addition, the alkaline medium is prepared by adjusting a 0.04M solution of N-[tris-(hydroxymethyl)methyl]-glycine buffered deionized water with concentrated sodium hydroxide to a pH of […]. Malt yeast agar is prepared by adding 3 g yeast extract and 45 g malt agar per liter of deionized water. The specific agar is dispensed in 30 ml aliquots into 25×200 mm test tubes, capped and autoclaved for 15 minutes at 115° C. The test tubes containing the agar are cooled in a water bath until the temperature of the agar is 48° C. Then, an appropriate amount of the one percent solution of the test compound is added (except in the controls where no compound is added) to the respective test tubes so that the final concentrations are 500, 250, 100, 50, 25, 10, 5, 2.5, 1.0 and zero parts per million of the test compound in the agar, thus having a known concentration of test compound dispersed therein. The contents of the test tubes are then transferred to respective petri plates. After drying for 24 hours, the petri plates containing nutrient agar are inoculated with bacteria and those containing malt yeast agar are inoculated with yeast and fungi.
(§5) The inoculation with bacteria is accomplished by using the following procedure. Twenty-four hour-cultures of each of the bacteria are prepared by incubating the respective bacteria in tubes containing nutrient broth for 24 hours at 30° C. in a shaker. Dilutions of each of the 24 hour-cultures are made so that nine separate suspensions (one for each of the nine test bacteria) are made, each containing 10^8 colony forming units (CFU) per ml of suspension of a particular bacteria. Aliquots of 0.3 ml of each of the bacterial suspensions are used to fill the individual wells of Steer's Replicator. For each microbial suspension, 0.3 ml was used to fill three wells (i.e., three wells of 0.3 ml each) so that for the nine different bacteria, 27 wells are filled. The Steer's Replicator is then used to inoculate both the neutral and alkaline pH nutrient agar petri plates.
(§6) The inoculated petri plates are incubated at 30° C. for 48 hours and then read to determine if the test compound which is incorporated into the agar prevented growth of the respective bacteria.
(§7) Table II lists the bacteria, yeast and fungi used in the MIC test described above along with their respective American Type Culture Collection (ATCC) identification numbers.
(§8) The following MIC and MEC antimicrobial tests, whose results are shown in Tables XIII-XVII, are performed using the same methods as described hereinabove.

[3] = system: mixture of the bacterial organisms listed in Table II; assay: Multiple Challenge Test in shampoo formulation; type: cell-based, bacteria listed in Table II; conditions: 10 challenges
Experimental: as §1, §2, §3

[4] = system: Bacillus subtilis (Bs); assay: MIC in nutrient agar, Bacillus subtilis; type: cell-based, Bacillus subtilis ATCC 8473
Experimental: as §4, §5, §6, §7, §8

[5] = system: Staphylococcus aureus (Sa); assay: MIC in nutrient agar, Staphylococcus aureus; type: cell-based, Staphylococcus aureus ATCC 6538
Experimental: as §4, §5, §6, §7, §8

[6] = system: Enterobacter aerogenes (Ea); assay: MIC in nutrient agar, Enterobacter aerogenes; type: cell-based, Enterobacter aerogenes ATCC 13048
Experimental: as §4, §5, §6, §7, §8

[7] = system: Penicillium chrysogenum (Pc); assay: MIC in malt yeast agar, Penicillium chrysogenum; type: cell-based, Penicillium chrysogenum ATCC 9480; conditions: read-out: Minimum Inhibitory Concentration, Pc
Experimental: as §4
(§9) The inoculation with the yeast and fungi is accomplished as follows. Cultures of yeast and fungi are incubated for seven days on malt yeast agar at 30° C. These cultures are used to prepare suspensions by the following procedure. A suspension of each organism is prepared by adding 10 ml of sterile saline and 10 microliters of octylphenoxy polyethoxy ethanol (TRITON® X-100, a trademark of Rohm & Haas Company) to the agar slant of yeast or fungi. The sterile saline/octylphenoxy polyethoxy ethanol solution is then agitated with a sterile swab to suspend the microorganism grown on the slant. Each resulting suspension is diluted into sterile saline (1 part suspension: 9 parts sterile saline). Aliquots of these dilutions are placed in individual wells of Steer's Replicator and petri plates inoculated as previously described. The petri plates are incubated at 30° C. and read after 48 hours for yeast and 72 hours for fungi.
as §7, §8

[8] = system: Fusarium oxysporum (Fo); assay: MIC in malt yeast agar, Fusarium oxysporum; type: cell-based, Fusarium oxysporum ATCC 48112; conditions: read-out: Minimum Inhibitory Concentration, Fo
Experimental: as §4, §9, §7, §8

[9] = system: Proteus vulgaris (Pv); assay: MIC in nutrient agar, Proteus vulgaris; type: cell-based, Proteus vulgaris ATCC 881
Experimental: as §4, §5, §6, §7, §8

[10] = Escherichia coli, pH 6.8; read-out: Minimum Inhibitory Concentration, Ec
[11] = Escherichia coli, pH 8.2, read-out: Minimum Inhibitory Concentration, Ec
[12] = Bacillus subtilis, pH 6.8; read-out: Minimum Inhibitory Concentration, Bs
[13] = Bacillus subtilis, pH 8.2, read-out: Minimum Inhibitory Concentration, Bs
[14] = Staphylococcus aureus, pH 6.8; read-out: Minimum Inhibitory Concentration, Sa
[15] = Staphylococcus aureus, pH 8.2, read-out: Minimum Inhibitory Concentration, Sa
[16] = Klebsiella aerogenes, pH 6.8, read-out: Minimum Inhibitory Concentration, Ea
[17] = Klebsiella aerogenes, pH 8.2; read-out: Minimum Inhibitory Concentration, Ea
[18] = pH 6.8, read-out: Minimum Inhibitory Concentration, Pv
[19] = pH 8.2, read-out: Minimum Inhibitory Concentration, Pv
[20] = Escherichia coli, pH 8.2; read-out: Minimum Inhibitory Concentration, Ec
[21] = Bacillus subtilis, pH 6.8, read-out: Minimum Inhibitory Concentration, Bs
[22] = Bacillus subtilis, pH 8.2; read-out: Minimum Inhibitory Concentration, Bs
[23] = Staphylococcus aureus, pH 6.8, read-out: Minimum Inhibitory Concentration, Sa
[24] = Staphylococcus aureus, pH 8.2; read-out: Minimum Inhibitory Concentration, Sa
[25] = Klebsiella aerogenes, pH 6.8; read-out: Minimum Inhibitory Concentration, Ea

Structure (SMILES)	MEC [1] [ppm]	MIC [2, 10] [µg/mL]	MIC [2, 11] [µg/mL]	MEC [3] [ppm]	MIC [4, 12] [µg/mL]	MIC [4, 13] [µg/mL]	MIC [5, 14] [µg/mL]	MIC [5, 15] [µg/mL]	MIC [6, 16] [µg/mL]	MIC [6, 17] [µg/mL]	MIC ([7]; malt yeast agar) [µg/mL]	MIC ([8]; malt yeast agar) [µg/mL]	MIC [9, 18] [µg/mL]	MIC [9, 19] [µg/mL]	MIC [2, 20] [µg/mL]	MIC [4, 21] [µg/mL]	MIC [4, 22] [µg/mL]	MIC [5, 23] [µg/mL]	MIC [5, 24] [µg/mL]	MIC [6, 25] [µg/mL]	other results
CCSC#CC#N [B, 3-ethylthio-2-propynenitrile]	25	5 (≈ 45 µM)	10 (≈ 90 µM)	25	25 (≈ 225 µM)	25 (≈ 225 µM)	5 (≈ 45 µM)	10 (≈ 90 µM)	25 (≈ 225 µM)	25 (≈ 225 µM)	< 1	< 1	< 1	5 (≈ 45 µM)							
N#CC#CSC1CCCC1 [C, 3-cyclopentylthio-2-propynenitrile]	250	< 10		100						100 (≈ 661 µM)	< 1	< 1	< 10	< 10	< 10	100 (≈ 661 µM)	250 (≈ 1650 µM)	< 10	< 10	100 (≈ 661 µM)	
CSC#CC#N [Compound A, 3-methylthio-2-propynenitrile]	10	2.5 (≈ 25.7 µM)		10	2.5 (≈ 25.7 µM)		2.5 (≈ 25.7 µM)			25 (≈ 257 µM)	0.25 (≈ 2.57 µM)	0.5 (≈ 5.15 µM)	< 1	2.5 (≈ 25.7 µM)	5 (≈ 51.5 µM)		5 (≈ 51.5 µM)		5 (≈ 51.5 µM)	2.5 (≈ 25.7 µM)	Minimum Inhibitory Concentration, Ec ([2]; pH 8.2): 5 ppm; Minimum Inhibitory Concentration, Bs ([4]; pH 8.2): 5 ppm; Minimum Inhibitory Concentration, Sa ([5]; pH 8.2): 5 ppm
CSC=C(Cl)C#N [Compound G, 2-chloro-3-(methylthio)-2-propenenitrile]			10 (≈ 74.8 µM)			10 (≈ 74.8 µM)		5 (≈ 37.4 µM)	50 (≈ 374 µM)				50 (≈ 374 µM)	5 (≈ 37.4 µM)		75 (≈ 561 µM)		50 (≈ 374 µM)			MIC ([2]; Escherichia coli, pH 6.8, read-out: Minimum Inhibitory Concentration, Ec): 50 µg/mL (≈ 374 µM); MIC ([6]; Klebsiella aerogenes, pH 8.2, read-out: Minimum Inhibitory Concentration, Ea): 10 µg/mL (≈ 74.8 µM); MIC [7]: 50 µg/mL (≈ 374 µM); MIC [8]: 50 µg/mL (≈ 374 µM)
N#CC#CSc1ccc(Cl)cc1 [D, 3-(4-chlorophenylthio)-2-propynenitrile]	250	< 10		100	< 10		< 10			50 (≈ 258 µM)	< 1	< 1	< 10	50 (≈ 258 µM)	50 (≈ 258 µM)		50 (≈ 258 µM)		25 (≈ 129 µM)	< 10	
